Experiments:
hearts of WT mice = assay: Langendorff perfused heart, ischemia and reperfusion (I/R) with OLDA, wild type; design: species or system mouse; conditions: OLDA 1.5×10^−7M; WT
Protocol: (§1) The following measurements were made on the two types of heart tissue: left ventricular end-diastolic pressure (LVEDP), left ventricular developed pressure (LVDP), coronary flow (CF), and left ventricular (LV) peak positive rate of pressure change/rate of time change (+dP/dt) were evaluated after I/R.

hearts of TRPV1−/− mice = assay: Langendorff perfused heart, ischemia and reperfusion (I/R) with OLDA, TRPV1-null; design: species or system mouse
Protocol: as §1

WT and TRPV1−/− hearts = assay: OLDA-induced CGRP and SP release from hearts (radioimmunoassay); design: species or system mouse
[1] = target: transient receptor potential vanilloid type 1 (TRPV1) channel (Homo sapiens, UniProt Q8NER1); conditions: in vitro; cited from earlier work
Chain of transient receptor potential vanilloid type 1 (TRPV1) channel (Q8NER1 whole entry, species assumed): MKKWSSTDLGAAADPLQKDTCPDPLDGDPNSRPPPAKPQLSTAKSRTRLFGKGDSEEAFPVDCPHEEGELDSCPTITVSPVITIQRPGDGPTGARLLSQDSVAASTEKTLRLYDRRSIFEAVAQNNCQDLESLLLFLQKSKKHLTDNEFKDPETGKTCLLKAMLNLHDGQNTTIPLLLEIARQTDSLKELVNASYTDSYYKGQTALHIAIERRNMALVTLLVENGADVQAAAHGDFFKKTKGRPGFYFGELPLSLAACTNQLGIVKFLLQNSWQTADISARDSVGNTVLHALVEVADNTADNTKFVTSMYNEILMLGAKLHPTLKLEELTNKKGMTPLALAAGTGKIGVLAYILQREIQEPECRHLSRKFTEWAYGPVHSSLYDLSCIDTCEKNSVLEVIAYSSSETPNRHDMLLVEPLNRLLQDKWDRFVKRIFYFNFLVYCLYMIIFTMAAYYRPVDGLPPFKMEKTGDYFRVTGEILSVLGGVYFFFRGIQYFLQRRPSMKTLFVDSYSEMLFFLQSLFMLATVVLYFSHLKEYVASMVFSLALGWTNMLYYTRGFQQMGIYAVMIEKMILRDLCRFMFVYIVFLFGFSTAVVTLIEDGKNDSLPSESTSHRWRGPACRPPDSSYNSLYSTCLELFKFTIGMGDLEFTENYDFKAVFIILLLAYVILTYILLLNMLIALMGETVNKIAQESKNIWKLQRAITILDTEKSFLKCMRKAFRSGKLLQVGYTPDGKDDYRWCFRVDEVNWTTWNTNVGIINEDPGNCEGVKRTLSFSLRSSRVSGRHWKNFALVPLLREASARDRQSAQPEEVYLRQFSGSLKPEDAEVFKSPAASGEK

[2] = tested on: Wistar rats fed a NS or HS diet for 10 days; assay: MAP responses to i.v. capsaicin with or without CAPZ in urethane-anesthetized rats; assay type: in vivo, rat; conditions: for decrease in MAP: in mmHg
Protocol: Surgical Preparation Rats were anesthetized with ketamine and xylazine (80 and 4 mg/kg intraperitoneally, respectively) for cannulation or with urethane (1.5 g/kg intraperitoneally) for capsaicin administration. The left jugular vein, carotid and femoral artery were cannulated under anesthesia for injection of drugs or monitoring of mean arterial pressure (MAP) and heart rate (HR).
Each dose of injection was separated by a 30-minute interval. To determine the specificity of capsaicin, CAPZ (3 mg/kg) was administered 10 minutes before capsaicin injection in a separate group.

renal tissues = assay: Capsaicin-induced CGRP release from renal tissues; design: species or system rat; conditions: Cap-HS and Cap-NS vs Con-NS and Con-HS
Excerpt: N¼5,_P<0.05 versus vehicle, capsazepine plus capsaicin and capsazepine; †P<0.001 versus capsaicin of control rats with a normal sodium diet (Con-NS) and capsaicin of control rats with a high sodium diet (Con-HS). Vehicle; capsaicin; capsazepine and capsaicin; capsazepine.
To examine renal sensory nerve function, renal CGRP release after stimulation of the renal sensory nerves with capsaicin was examined.

Wistar rats = assay: Neonatal capsaicin treatment plus NS or HS diet: blood pressure, 8-isoprostane, creatinine clearance; assay type: in vivo, rat
Protocol: (§2) Enhanced oxidative stress in kidneys of salt-sensitive hypertension: role of sensory nerves (Am J Physiol Heart Circ Physiol 291: H3136-H3143, 2006). To determine the mechanism(s) underlying enhanced oxidative stress in kidneys of salt-sensitive hypertension, neonatal Wistar rats were given vehicle or capsaicin (CAP, 50 mg/kg sc) on the first and second days of life. After being weaned, male rats were assigned into four groups and treated for 2 wk with the following: vehicle+a normal sodium diet (NS, 0.4%, CON-NS), vehicle+a high-sodium diet (HS, 4%, CON-HS), CAP+NS (CAP−NS), and CAP+HS (CAP−HS). […] Plasma and urinary 8-iso-prostaglandin F2alpha levels increased by approximately 40% in CON-HS and CAP−HS rats compared with their respective controls fed a NS diet (P≦0.05), and these parameters were higher in CAP−HS compared with CON-HS rats. Superoxide (O2—) levels in the renal cortex and medulla increased by approximately 45% in CAP−HS compared with CON-HS, CON-NS, and CAP−NS rats (P≦0.05).

renal cortex and medulla = assay: Neonatal capsaicin treatment plus NS or HS diet: renal superoxide, SOD and NAD(P)H oxidase subunits; design: species or system rat; conditions: for renal cortical Cu/Zn SOD activity / renal cortical Cu/Zn SOD protein expression / renal cortical Mn SOD activity / renal cortical Mn SOD protein expression / renal cortical O2— production / renal cortical gp91 phox protein expression / renal cortical p47phox protein expression / renal medullary Cu/Zn SOD activity / renal medullary Cu/Zn SOD protein expression / renal medullary Mn SOD activity / renal medullary Mn SOD protein expression / renal medullary O2— production / renal medullary p47phox protein expression: neonatal CAP
Protocol: as §2, with “(P≦0.05). […]” for “(P≦0.05).”

[3] = tested on: rats fed either a high or normal sodium diet; conditions: rat, in vivo; cited from earlier work
rats = conditions: dose-dependent; abolished by TRPV1 blockade or ipsilateral renal denervation; cited from earlier work
[4] = CAP−HS compared with CON-HS, CON-NS, CAP−NS

CCCCCCCC/C=C\CCCCCCCC(=O)NCCc1ccc(O)c(O)c1 [OLDA, N-oleoyl-dopamine]
LV peak positive dP/dt (+dP/dt) after I/R (hearts of WT mice): 3227±126 mmHg/s | coronary flow (CF) after I/R (hearts of WT mice): 76±6% | left ventricular developed pressure (LVDP) after I/R (hearts of WT mice): 61.3±3.8 mmHg | left ventricular end-diastolic pressure (LVEDP) after I/R (hearts of WT mice): 10.1±0.6 mmHg | protective effect in TRPV1−/− hearts (hearts of TRPV1−/− mice): void | LV peak positive dP/dt (+dP/dt) after I/R (hearts of TRPV1−/− mice; OLDA 1.5×10^−7M, TRPV1−/−): 1967±299 mmHg/s | coronary flow (CF) after I/R (hearts of TRPV1−/− mice; OLDA 1.5×10^−7M, TRPV1−/−): 53±2% | left ventricular developed pressure (LVDP) after I/R (hearts of TRPV1−/− mice; OLDA 1.5×10^−7M, TRPV1−/−): 39.8±3.7 mmHg | left ventricular end-diastolic pressure (LVEDP) after I/R (hearts of TRPV1−/− mice; OLDA 1.5×10^−7M, TRPV1−/−): 29.9±3.5 mmHg | CGRP and SP release in WT compared to TRPV1−/− hearts (WT and TRPV1−/− hearts): significantly higher | potency relative to capsaicin [1]: at least 30 times

COc1cc(CNC(=O)CCCC/C=C/C(C)C)ccc1O [capsaicin, (E)-N-(4-hydroxy-3-methoxybenzyl)-8-methylnon-6-enamide]
decrease in MAP ([2]; CAP 10 μg/kg iv, HS): 11±2 | decrease in MAP ([2]; CAP 10 μg/kg iv, NS): 6±1 | decrease in MAP ([2]; CAP 30 μg/kg iv, HS): 21±3 | decrease in MAP ([2]; CAP 30 μg/kg iv, NS): 12 ±2 | decrease in MAP (depressor effect) ([2]; capsaicin 10 μg/kg iv, HS): 11±2 mmHg | decrease in MAP (depressor effect) ([2]; capsaicin 10 μg/kg iv, NS): 6±1 mmHg | decrease in MAP (depressor effect) ([2]; capsaicin 30 μg/kg iv, HS): 21±3 mmHg | decrease in MAP (depressor effect) ([2]; capsaicin 30 μg/kg iv, NS): 12±2 mmHg | renal CGRP release in response to 1 mmol/l capsaicin in capsaicin-pretreated vs control rats (renal tissues): significantly lower | decrease in creatinine clearance (Wistar rats; [4]): 45% | increase in plasma and urinary 8-iso-prostaglandin F2alpha levels (Wistar rats; CAP−HS compared with control fed a NS diet): approximately 40% | plasma and urine 8-isoprostane levels (Wistar rats; neonatal CAP, NS diet): did not increase | increase in superoxide levels in renal cortex and medulla (renal cortex and medulla; [4]): approximately 45% | renal cortical Cu/Zn SOD activity (renal cortex and medulla; HS): 74.6 9.6 mU/mg protein | renal cortical Cu/Zn SOD protein expression (renal cortex and medulla; HS): 0.39 0.05 %-actin arbitrary units | renal cortical Mn SOD activity (renal cortex and medulla; HS): 14.3 3.5 mU/mg protein | renal cortical Mn SOD protein expression (renal cortex and medulla; HS): 0.10 0.01 %-actin arbitrary units | renal cortical O2— production (renal cortex and medulla; HS): 3.53 0.46 nmol_min—1_mg dry wt—1 | renal cortical gp91 phox protein expression (renal cortex and medulla; HS): 0.21 0.03 arbitrary units | renal cortical p47phox protein expression (renal cortex and medulla; HS): 0.07 0.01 arbitrary units | renal medullary Cu/Zn SOD activity (renal cortex and medulla; HS): 101.7 11.6 mU/mg protein | renal medullary Cu/Zn SOD protein expression (renal cortex and medulla; HS): 0.41 0.05 %-actin arbitrary units | renal medullary Mn SOD activity (renal cortex and medulla; HS): 27.1 4.2 mU/mg protein | renal medullary Mn SOD protein expression (renal cortex and medulla; HS): 0.13 0.02 %-actin arbitrary units | renal medullary O2— production (renal cortex and medulla; HS): 2.32 0.29 nmol_min—1_mg dry wt—1 | renal medullary p47phox protein expression (renal cortex and medulla; HS): 0.1 0.01 arbitrary units | renal cortical Cu/Zn SOD activity (renal cortex and medulla; NS): 54.8 7.6 mU/mg protein | renal cortical Cu/Zn SOD protein expression (renal cortex and medulla; NS): 0.29 0.05 %-actin arbitrary units | renal cortical Mn SOD activity (renal cortex and medulla; NS): 10.4 2.5 mU/mg protein | renal cortical Mn SOD protein expression (renal cortex and medulla; NS): 0.07 0.01 %-actin arbitrary units | renal cortical O2— production (renal cortex and medulla; NS): 2.35 0.55 nmol_min—1_mg dry wt—1 | renal cortical gp91 phox protein expression (renal cortex and medulla; NS): 0.17 0.03 arbitrary units | renal cortical p47phox protein expression (renal cortex and medulla; NS): 0.05 0.01 arbitrary units | renal medullary Cu/Zn SOD activity (renal cortex and medulla; NS): 67.0 7.6 mU/mg protein | renal medullary Cu/Zn SOD protein expression (renal cortex and medulla; NS): 0.27 0.05 %-actin arbitrary units | renal medullary Mn SOD activity (renal cortex and medulla; NS): 18.7 3.8 mU/mg protein | renal medullary Mn SOD protein expression (renal cortex and medulla; NS): 0.09 0.02 %-actin arbitrary units | renal medullary O2— production (renal cortex and medulla; NS): 1.43 0.40 nmol_min—1_mg dry wt—1 | renal medullary p47phox protein expression (renal cortex and medulla; NS): 0.07 0.01 arbitrary units | MAP [3]: decrease in MAP | plasma CGRP levels [3]: increase in plasma CGRP levels | Uflow and UNa (rats): Increases
